In patent US6245817A, “NPY5 receptor antagonists and methods for using same” (Bayer Corporation, priority 1999, dated 2001) one finds IC50, activity and inhibition data, which are given here for 6 compounds.

The target of assay [1] is T1, Rat NPY5 Receptor (Rattus norvegicus, UniProt Q63634).
T1 sequence (Q63634 1-445): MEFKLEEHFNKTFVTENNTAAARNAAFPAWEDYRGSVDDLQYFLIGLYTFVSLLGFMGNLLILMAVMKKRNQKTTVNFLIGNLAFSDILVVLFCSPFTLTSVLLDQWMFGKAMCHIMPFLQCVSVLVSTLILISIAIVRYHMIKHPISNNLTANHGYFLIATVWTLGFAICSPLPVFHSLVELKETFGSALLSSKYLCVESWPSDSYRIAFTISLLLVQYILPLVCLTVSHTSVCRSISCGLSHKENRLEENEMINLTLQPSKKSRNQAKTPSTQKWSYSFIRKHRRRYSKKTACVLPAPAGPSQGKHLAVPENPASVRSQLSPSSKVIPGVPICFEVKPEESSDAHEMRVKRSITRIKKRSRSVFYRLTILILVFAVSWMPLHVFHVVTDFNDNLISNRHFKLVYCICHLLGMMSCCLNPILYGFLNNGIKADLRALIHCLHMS
Put plainly: Rat NPY5 Receptor Binding Assay. To be noted: for IC50: [125I]PYY, read-out: rNPY5 IC50.

Assay [2] deals with T1, Rat NPY5 Receptor. Nature of the assay: Rat NYP5 Cyclase Assay (In Vitro Functional Assay). The assay is classed as cell-based. To be noted: 20 min, percentage of forskolin-stimulated adenylate cyclase, read-out: rNPY5 % FSAC (10 μM). Here is the method:
D. Rat NYP5 Cyclase Assay (In Vitro Functional Assay)
Cells stably expressing the rat NPY5 receptor are resuspended in serum-free DMEM containing 10 mM HEPES (pH 7.4) and 1 mM isobutylmethylxanthine (IBMX). 1 μM forskolin and drug dilution are then added to the cells. After a 20 minute incubation of the samples at 37° C., the assay is stopped by placing the samples in boiling water for 3 minutes. The cAMP produced in each sample is quantitated with a radioimmunoassay kit (NEN Dupont). Data are expressed as a percentage of forskolin-stimulated adenylate cyclase.

For another assay, the target named is T2, Human NPY5 Receptor (Homo sapiens, UniProt Q15761).
T2 sequence (Q15761 1-445): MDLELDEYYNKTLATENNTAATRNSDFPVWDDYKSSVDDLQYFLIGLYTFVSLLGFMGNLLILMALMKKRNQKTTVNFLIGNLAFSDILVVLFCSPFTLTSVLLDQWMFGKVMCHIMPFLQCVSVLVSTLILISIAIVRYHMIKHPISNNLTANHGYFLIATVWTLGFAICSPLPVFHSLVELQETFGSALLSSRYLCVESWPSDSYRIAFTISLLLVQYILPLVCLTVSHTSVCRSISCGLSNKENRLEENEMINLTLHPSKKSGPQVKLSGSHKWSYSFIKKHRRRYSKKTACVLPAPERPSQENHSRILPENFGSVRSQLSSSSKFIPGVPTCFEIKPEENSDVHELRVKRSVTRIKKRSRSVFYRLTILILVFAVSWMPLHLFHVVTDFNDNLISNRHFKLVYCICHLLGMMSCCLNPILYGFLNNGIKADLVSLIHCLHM
Nature of the assay: Human NPY5 Receptor Binding Assay. To be noted: [125I]PYY; read-out: hNPY5 IC50.

A further assay has as its target Human NPY4/PP1 receptor (Homo sapiens, UniProt P50391). Put plainly: Human NPY4/PP1 Receptor Binding Assay. Conditions: [125I]human PP; read-out: hNPY4 IC50.
In the next assay the target is T3, Human NPY1 Receptor (Homo sapiens, UniProt P25929).
T3 sequence (P25929 1-384): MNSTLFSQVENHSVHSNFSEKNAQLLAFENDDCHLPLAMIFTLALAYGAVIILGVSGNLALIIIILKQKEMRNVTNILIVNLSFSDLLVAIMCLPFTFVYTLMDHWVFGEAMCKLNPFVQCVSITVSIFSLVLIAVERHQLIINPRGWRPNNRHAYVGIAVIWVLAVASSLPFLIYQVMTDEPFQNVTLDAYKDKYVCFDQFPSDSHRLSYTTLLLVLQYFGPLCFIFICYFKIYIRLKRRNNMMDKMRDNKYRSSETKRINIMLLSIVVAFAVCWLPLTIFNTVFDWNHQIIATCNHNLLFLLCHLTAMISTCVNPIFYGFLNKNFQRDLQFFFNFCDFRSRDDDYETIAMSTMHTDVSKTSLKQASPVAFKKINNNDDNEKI
Nature of the assay: Human NPY1 Receptor Binding Assay. To be noted: SK-N-MC cells, [125I]PYY; read-out: hNPY1 IC50.

The next assay deals with T4, Human NPY2 receptor (Homo sapiens, UniProt P49146).
T4 sequence (P49146 1-381): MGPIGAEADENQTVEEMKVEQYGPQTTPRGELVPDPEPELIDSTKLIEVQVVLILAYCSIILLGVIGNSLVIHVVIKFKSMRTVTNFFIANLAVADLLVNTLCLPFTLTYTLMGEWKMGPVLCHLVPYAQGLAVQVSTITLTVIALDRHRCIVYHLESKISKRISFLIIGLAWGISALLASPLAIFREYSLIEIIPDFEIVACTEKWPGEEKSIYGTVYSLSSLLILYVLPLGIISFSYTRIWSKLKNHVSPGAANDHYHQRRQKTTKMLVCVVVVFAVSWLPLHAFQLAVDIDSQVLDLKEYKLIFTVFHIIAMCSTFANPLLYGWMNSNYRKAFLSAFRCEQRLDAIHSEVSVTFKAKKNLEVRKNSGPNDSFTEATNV
Put plainly: Human NPY2 Receptor Binding Assay. To be noted: [125I]PYY; read-out: hPPY2 IC50.

Counter-ions that a name gives are not always drawn.

Sequence of Human NPY4/PP1 receptor (P50391 whole entry): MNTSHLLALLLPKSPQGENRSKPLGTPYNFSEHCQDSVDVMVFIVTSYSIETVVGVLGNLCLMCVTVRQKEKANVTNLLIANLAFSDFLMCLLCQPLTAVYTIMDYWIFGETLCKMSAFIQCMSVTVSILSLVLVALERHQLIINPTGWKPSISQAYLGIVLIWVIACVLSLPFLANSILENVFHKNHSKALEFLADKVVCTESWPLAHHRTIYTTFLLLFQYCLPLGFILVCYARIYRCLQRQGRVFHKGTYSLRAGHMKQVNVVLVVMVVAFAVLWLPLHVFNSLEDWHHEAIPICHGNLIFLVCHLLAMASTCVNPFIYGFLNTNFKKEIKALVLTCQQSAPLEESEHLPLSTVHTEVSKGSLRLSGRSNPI
Experimental for Human NPY5 Receptor: Human and Rat NPY5 Receptor Binding Assays
Binding assays are performed on GF/C Millipore 96-well plates pretreated with 0.02% polyethylenimine. The binding buffer is 25 mM Tris, 120 mM NaCl, 5 mM KCl, 1.2 mM KH2 PO4, 2.5 mM CaCl2, 1.2 mM MgSO4, 0.1% BSA and 0.5 mg/ml bacitracin, pH 7.4. Samples consist of membrane protein, 75-100 pM [125I]PYY (porcine, NEN-DuPont) and drug dilution. Nonspecific binding is defined by 1 μM PYY. After a 2 hour incubation at room temperature with constant mixing, the samples are aspirated on a vacuum manifold, and rinsed with ice-cold binding buffer. The amount of radioactivity in each well is quantitated with either gamma counting or liquid scintillation. IC50 values, which correspond to 50% inhibition of specific binding, are determined with non-linear regression analysis.

Usually IC50 stands for the concentration that inhibits the measured activity by half. As for `Cn1nnnc1SCC(=O)Nc1ccc(C2CCCCC2)cc1` [Compound 8, N-(4-Cyclohexyl-phenyl)-2-(1-methyl-1H-tetrazol-5-ylsulfanyl)-acetamide], the IC50 at Rat NPY5 Receptor [1] was 0.029 µM; on Human NPY5 Receptor it was 0.16 µM; at Human NPY4/PP1 receptor it was more than 5 µM; at Human NPY1 Receptor, more than 5 µM; on Human NPY2 receptor, more than 5 µM. For the same compound, the activity at 10 µM on Rat NPY5 Receptor [2] came out at 99%.
Consider `Cn1ccnc1SCC(=O)Nc1ccc(C2CCCCC2)cc1` [Compound 3, N-(4-Cyclohexyl-phenyl)-2-(1-methyl-1H-imidazol-2-ylsulfanyl)-acetamide Hydrochloride], for which the IC50 was 0.12 µM at Rat NPY5 Receptor [1]; 0.16 µM at Human NPY5 Receptor; more than 5 µM at Human NPY4/PP1 receptor; more than 5 µM at Human NPY1 Receptor; more than 5 µM on Human NPY2 receptor. Besides, the activity at 10 µM at Rat NPY5 Receptor [2] was determined as 103%.
As to `Cn1ccnc1SCC(=O)Nc1ccc(I)cc1` [Compound 145, N-(4-Iodo-phenyl)-2-(1-methyl-1H-imidazol-2-ylsulfanyl)-acetamide, reference compound], the IC50 at Rat NPY5 Receptor [1] is more than 10 µM; on Human NPY5 Receptor, more than 10 µM; on Human NPY4/PP1 receptor, more than 5 µM; at Human NPY1 Receptor, more than 5 µM; at Human NPY2 receptor it was more than 5 µM.
Regarding `CSc1ncc(-c2nnc(SCC(=O)Nc3ccc(Cl)cc3)n2C)n1C` [Compound 142, N-(4-Chloro-phenyl)-2-(4-methyl-5-(3-methyl-2-methylsulfanyl-3H-imidazol-4-yl)-4H-[1,2,4]triazol-3-ylsulfanyl]-acetamide, reference compound], the IC50 at Rat NPY5 Receptor [1] was more than 10 µM; at Human NPY5 Receptor it was more than 10 µM; on Human NPY4/PP1 receptor, more than 5 µM; on Human NPY1 Receptor, more than 5 µM; on Human NPY2 receptor, more than 5 µM.
Regarding `Nc1nnc(SCC(=O)Nc2ccc(C3CCCCC3)cc2)s1` [Compound 51, 2-(-Amino-[1,3,4]thiadiazol-2-ylsulfanyl)-N-4-cydohexyl-phenyl-cetamide], on Rat NPY5 Receptor [2], the activity at 10 µM stood at 105%. Besides, the IC50 was 0.22 µM at Human NPY5 Receptor and more than 5 µM at Human NPY2 receptor.
A word on the inhibition: it is the drop in the measured response relative to a control, in per cent. For the compound `Cn1ccnc1SCC(=O)Nc1ccc(-c2ccccc2)cc1` [Compound 1, N-Biphenyl-4yl-2-(1-methyl-1H-imidazol-2-ylsulfanyl)-acetamide], the inhibition at 10 µM at Rat NPY5 Receptor [1] (10 μM, values marked *, read-out: rNPY5 percent inhibition at 10 μM) turned out to be 95%. The IC50 on Human NPY5 Receptor was 0.64 µM; at Human NPY4/PP1 receptor, more than 5 µM; at Human NPY1 Receptor, more than 5 µM; at Human NPY2 receptor, more than 10 µM.
